From ChEMBL document CHEMBL1131875, “Selective inhibition of low affinity IgE receptor (CD23) processing: P1' bicyclomethyl substituents” (Bioorg Med Chem Lett, 1999)

What was measured:
Interstitial collagenase = target: T1, Interstitial collagenase (Homo sapiens, UniProt P03956); assay: Inhibitory activity against matrix metalloprotease (MMP-1)
T1 sequence (P03956 whole entry): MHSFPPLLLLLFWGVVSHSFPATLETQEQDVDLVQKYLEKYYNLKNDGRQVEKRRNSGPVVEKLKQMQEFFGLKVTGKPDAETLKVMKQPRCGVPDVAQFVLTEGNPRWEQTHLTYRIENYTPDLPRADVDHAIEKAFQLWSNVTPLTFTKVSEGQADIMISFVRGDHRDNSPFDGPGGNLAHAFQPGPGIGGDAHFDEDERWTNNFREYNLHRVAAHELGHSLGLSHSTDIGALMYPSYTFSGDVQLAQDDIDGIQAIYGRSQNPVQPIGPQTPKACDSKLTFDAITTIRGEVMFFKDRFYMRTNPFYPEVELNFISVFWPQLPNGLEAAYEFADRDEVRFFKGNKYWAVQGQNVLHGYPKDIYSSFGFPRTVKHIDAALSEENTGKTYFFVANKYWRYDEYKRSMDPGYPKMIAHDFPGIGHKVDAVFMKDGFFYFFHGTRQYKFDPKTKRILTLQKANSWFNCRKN

[1] = target: Matrix metalloproteinase-9 (Homo sapiens, UniProt P14780); assay: Inhibitory activity against matrix metalloprotease (MMP-9)
Chain of Matrix metalloproteinase-9 (P14780 whole entry): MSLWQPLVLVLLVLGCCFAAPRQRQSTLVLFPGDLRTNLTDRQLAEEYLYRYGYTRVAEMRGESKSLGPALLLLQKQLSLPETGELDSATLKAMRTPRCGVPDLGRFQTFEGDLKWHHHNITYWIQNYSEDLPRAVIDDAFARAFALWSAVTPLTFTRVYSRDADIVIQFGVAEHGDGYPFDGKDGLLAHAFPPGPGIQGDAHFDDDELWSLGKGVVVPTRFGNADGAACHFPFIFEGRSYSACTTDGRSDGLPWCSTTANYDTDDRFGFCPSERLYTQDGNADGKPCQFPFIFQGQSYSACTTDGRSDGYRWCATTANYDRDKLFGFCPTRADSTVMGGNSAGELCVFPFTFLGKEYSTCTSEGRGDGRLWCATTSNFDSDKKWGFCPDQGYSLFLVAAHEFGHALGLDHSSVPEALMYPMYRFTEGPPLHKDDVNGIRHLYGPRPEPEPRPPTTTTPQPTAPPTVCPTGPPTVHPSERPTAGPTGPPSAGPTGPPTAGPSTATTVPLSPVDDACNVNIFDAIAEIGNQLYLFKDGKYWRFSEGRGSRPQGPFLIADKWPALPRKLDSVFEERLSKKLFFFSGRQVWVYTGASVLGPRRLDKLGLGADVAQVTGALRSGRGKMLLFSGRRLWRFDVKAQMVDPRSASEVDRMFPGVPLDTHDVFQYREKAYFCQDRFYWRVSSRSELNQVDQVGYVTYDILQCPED

Stromelysin-1 [2] = target: T2, Stromelysin-1 (Homo sapiens, UniProt P08254); assay: Inhibition of matrix metalloprotease (MMP-3) at 10 uM
Target sequence in this assay (P08254 100-477 limits assumed): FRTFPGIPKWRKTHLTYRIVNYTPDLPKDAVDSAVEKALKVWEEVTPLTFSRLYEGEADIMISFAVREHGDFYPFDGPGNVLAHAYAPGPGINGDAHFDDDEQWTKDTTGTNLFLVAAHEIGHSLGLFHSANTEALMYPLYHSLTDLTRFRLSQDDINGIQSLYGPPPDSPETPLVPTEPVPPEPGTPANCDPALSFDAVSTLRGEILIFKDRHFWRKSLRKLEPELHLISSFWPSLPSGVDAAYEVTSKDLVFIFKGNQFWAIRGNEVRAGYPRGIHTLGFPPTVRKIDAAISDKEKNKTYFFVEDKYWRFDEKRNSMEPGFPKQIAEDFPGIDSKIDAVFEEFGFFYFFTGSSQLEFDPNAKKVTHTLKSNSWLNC

Stromelysin-1 [3] = target: T2, Stromelysin-1; assay: Inhibition of matrix metalloprotease (MMP-3)
Target sequence in this assay (P08254 whole entry): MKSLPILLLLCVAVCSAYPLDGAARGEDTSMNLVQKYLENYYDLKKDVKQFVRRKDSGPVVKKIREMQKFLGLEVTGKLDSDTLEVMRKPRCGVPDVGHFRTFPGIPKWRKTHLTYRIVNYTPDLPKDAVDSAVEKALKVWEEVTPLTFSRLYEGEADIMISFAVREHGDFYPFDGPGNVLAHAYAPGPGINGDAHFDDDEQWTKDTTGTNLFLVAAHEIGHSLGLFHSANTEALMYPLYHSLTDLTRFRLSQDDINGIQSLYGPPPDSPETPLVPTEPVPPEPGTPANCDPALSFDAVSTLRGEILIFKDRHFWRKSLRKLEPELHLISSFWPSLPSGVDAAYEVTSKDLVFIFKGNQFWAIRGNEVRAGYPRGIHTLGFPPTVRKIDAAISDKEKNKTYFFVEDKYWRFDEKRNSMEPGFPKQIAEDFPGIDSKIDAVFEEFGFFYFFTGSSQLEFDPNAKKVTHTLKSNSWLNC

| Structure (SMILES) | IC50 (Interstitial collagenase) [nM] | IC50 [1] [nM] | inhibition (Stromelysin-1 [2]) [%] | IC50 (Stromelysin-1 [3]) [nM] |
| --- | --- | --- | --- | --- |
| CC(C)(C)[C@H](NC(=O)C(Cc1ccc2ccccc2c1)C(O)C(=O)NO)C(N)=O (single isomer, unassigned) | > 10000 | 640 | – | > 10000 |
| CC(C)(C)[C@H](NC(=O)[C@H](Cc1ccc2ccc(F)cc2c1)[C@H](O)C(=O)NO)C(N)=O | > 10000 | – | – | – |
| NC(=O)[C@H](Cc1ccccc1)NC(=O)C(Cc1ccc2ccc(O)cc2c1)C(O)C(=O)NO (single isomer, unassigned) | > 10000 | – | – | – |
| NC(=O)[C@H](Cc1ccccc1)NC(=O)C(Cc1ccc2ccccc2c1)C(O)C(=O)NO (single isomer, unassigned) | > 10000 | – | – | – |
| NC(=O)[C@H](Cc1ccccc1)NC(=O)[C@H](Cc1ccc2ccc(F)cc2c1)[C@H](O)C(=O)NO | > 10000 | – | – | – |
| CNC(=O)[C@@H](NC(=O)C(Cc1ccc2ccccc2c1)C(O)C(=O)NO)C(C)(C)C (single isomer, unassigned) | > 1000 | – | – | – |
| NC(=O)[C@H](Cc1ccccc1)NC(=O)[C@H](Cc1ccc2cc(F)ccc2c1)[C@H](O)C(=O)NO | > 10000 | 850 | – | 3000 |

Next, values leading:

| IC50 (Interstitial collagenase) [nM] | IC50 [1] [nM] | inhibition (Stromelysin-1 [2]) [%] | IC50 (Stromelysin-1 [3]) [nM] | Structure (SMILES) |
| --- | --- | --- | --- | --- |
| > 1000 | – | – | – | CNC(=O)[C@H](Cc1ccccc1)NC(=O)C(Cc1ccc2ccccc2c1)C(O)C(=O)NO (single isomer, unassigned) |
| > 1000 | – | – | – | O=C(C[C@@H](Cc1ccc2ccccc2c1)C(=O)N[C@@H](Cc1ccccc1)C(=O)NCc1ccccc1)NO |
| 1800 | 410 | 83 | – | CC(C)(C)[C@H](NC(=O)C(C[C@@H]1CCc2ccccc2C1)[C@H](O)C(=O)NO)C(N)=O (stereo not given in full) |
| 500 | – | – | – | NC(=O)[C@H](Cc1ccccc1)NC(=O)[C@H](Cc1nc2ccccc2s1)[C@H](O)C(=O)NO |
| 5000 | 190 | – | 3000 | CC(C)(C)[C@H](NC(=O)C(Cc1cnc2ccccc2c1)C(O)C(=O)NO)C(N)=O (single isomer, unassigned) |
| 140 | – | – | – | NC(=O)[C@H](Cc1ccccc1)NC(=O)[C@H](Cc1cc2ccccc2s1)[C@H](O)C(=O)NO |
| < 100 | – | – | – | CNC(=O)[C@H](Cc1ccccc1)NC(=O)[C@H](Cc1cc2ccccc2o1)[C@H](O)C(=O)NO |
| 800 | 230 | – | 230 | CC(C)(C)[C@H](NC(=O)C(C[C@H]1CCc2ccccc2C1)[C@H](O)C(=O)NO)C(N)=O (stereo not given in full) |
